# Experiments:
# Type in all cases: functional
# [1] = system: SN12C; assay: Anticancer activity against Homo sapiens (human) SN12C cells after 48 hr by SRB assay
# [2] = system: MDA-MB-468; assay: Anticancer activity against Homo sapiens (human) MDA-MB-468 cells after 48 hr by SRB assay; settings: MDA-MB-468, 48 h
# [3] = system: T47D; assay: Anticancer activity against Homo sapiens (human) T47D cells after 48 hr by SRB assay
# [4] = system: K562; assay: Anticancer activity against Homo sapiens (human) K562 cells after 48 hr by SRB assay; settings: K562, 48 h
# [5] = system: NCI-H23; assay: Anticancer activity against Homo sapiens (human) NCI-H23 cells after 48 hr by SRB assay; settings: NCI-H23, 48 h
# [6] = system: Malme-3M; assay: Anticancer activity against Homo sapiens (human) MALME-3M cells after 48 hr by SRB assay
# [7] = system: MOLT-4; assay: Anticancer activity against Homo sapiens (human) MOLT4 cells after 48 hr by SRB assay; settings: MOLT-4, 48 h
# [8] = system: SF-539; assay: Anticancer activity against Homo sapiens (human) SF539 cells after 48 hr by SRB assay; settings: SF-539, 48 h
# [9] = system: U-251; assay: Anticancer activity against Homo sapiens (human) U251 cells after 48 hr by SRB assay; settings: U-251, 48 h
# [10] = system: COLO 205; assay: Anticancer activity against Homo sapiens (human) COLO205 cells after 48 hr by SRB assay; settings: COLO 205, 48 h
# [11] = system: A498; assay: Anticancer activity against Homo sapiens (human) A498 cells after 48 hr by SRB assay; settings: A498, 48 h
# [12] = system: CAKI-1; assay: Anticancer activity against Homo sapiens (human) CAKI-1 cells after 48 hr by SRB assay; settings: CAKI-1, 48 h
# [13] = system: OVCAR-4; assay: Anticancer activity against Homo sapiens (human) OVCAR4 cells after 48 hr by SRB assay; settings: OVCAR-4, 48 h
# [14] = system: NCI-H460; assay: Anticancer activity against Homo sapiens (human) NCI-H460 cells after 48 hr by SRB assay; settings: NCI-H460, 48 h
# [15] = system: SK-OV-3; assay: Anticancer activity against Homo sapiens (human) SKOV3 cells after 48 hr by SRB assay; settings: SK-OV-3, 48 h
# [16] = system: HT-29; assay: Anticancer activity against Homo sapiens (human) HT-29 cells after 48 hr by SRB assay; settings: HT-29, 48 h
# [17] = system: HL-60(TB); assay: Anticancer activity against Homo sapiens (human) HL-60(TB) cells after 48 hr by SRB assay; settings: HL-60, 48 h
# [18] = system: SK-MEL-5; assay: Anticancer activity against Homo sapiens (human) SK-MEL-5 cells after 48 hr by SRB assay; settings: SK-MEL-5, 48 h
# [19] = system: OVCAR-5; assay: Anticancer activity against Homo sapiens (human) OVCAR5 cells after 48 hr by SRB assay; settings: OVCAR-5, 48 h
# [20] = system: BT-549; assay: Anticancer activity against Homo sapiens (human) BT549 cells after 48 hr by SRB assay; settings: BT-549, 48 h
# [21] = system: SNB-75; assay: Anticancer activity against Homo sapiens (human) SNB75 cells after 48 hr by SRB assay; settings: SNB-75, 48 h
# [22] = system: TK-10; assay: Anticancer activity against Homo sapiens (human) TK10 cells after 48 hr by SRB assay; settings: TK-10, 48 h
# [23] = system: HOP-62; assay: Anticancer activity against Homo sapiens (human) HOP62 cells after 48 hr by SRB assay; settings: HOP-62, 48 h
# [24] = system: HCT-15; assay: Anticancer activity against Homo sapiens (human) HCT15 cells after 48 hr by SRB assay; settings: HCT-15, 48 h
# [25] = system: HCT-116; assay: Anticancer activity against Homo sapiens (human) HCT116 cells after 48 hr by SRB assay; settings: HCT-116, 48 h
# [26] = system: ACHN; assay: Anticancer activity against Homo sapiens (human) ACHN cells after 48 hr by SRB assay
# [27] = system: OVCAR-3; assay: Anticancer activity against Homo sapiens (human) OVCAR3 cells after 48 hr by SRB assay; settings: OVCAR-3, 48 h
# [28] = system: UACC-257; assay: Anticancer activity against Homo sapiens (human) UACC257 cells after 48 hr by SRB assay; settings: UACC-257, 48 h
# [29] = system: LOX IMVI; assay: Anticancer activity against Homo sapiens (human) LOXIMVI cells after 48 hr by SRB assay
# [30] = system: SNB-19; assay: Anticancer activity against Homo sapiens (human) SNB19 cells after 48 hr by SRB assay; settings: SNB-19, 48 h
# [31] = read-out: LC50 (the source's name)
compound,measurement,setting,value
Cc1nc(SCC(=O)Nc2nc(-c3ccc(Cl)cc3)cs2)n(Nc2ccccc2)c1C,GI50,[1],2.38 µM
same,LC50 (concentration killing 50% of cells),[1],35.8 µM
same,TGI,[1],10.1 µM
same,GI50,[2],1.45 µM
same,LC50,[2],40.4 µM
same,TGI,[2],6.27 µM
same,GI50,[3],1.4 µM
same,TGI,[3],5.24 µM
same,CC50,[3]; [31],34.6 µM
same,GI50,[4],0.12 µM
same,TGI,[4],> 100 µM
same,CC50,[4]; [31],> 100 µM
same,GI50,[5],1.85 µM
same,TGI,[5],6.02 µM
same,CC50,[5]; [31],26.3 µM
same,GI50,[6],10.8 µM
same,TGI,[6],37.6 µM
same,CC50,[6]; [31],> 100 µM
same,GI50,[7],2.51 µM
same,LC50 (50% lethal concentration),[7],> 100 µM
same,TGI,[7],9.94 µM
same,GI50,[8],1.9 µM
same,LC50 (concentration killing 50% of cells),[8],9.64 µM
same,TGI,[8],4.27 µM
same,GI50,[9],3.13 µM
same,"LC50 (lethal concentration, 50% net cell kill)",[9],41.4 µM
same,TGI,[9],13 µM
same,GI50,[10],4.13 µM
same,TGI,[10],14.5 µM
same,CC50,[10]; [31],49.8 µM
same,GI50,[11],2.24 µM
same,LC50,[11],35.8 µM
same,TGI,[11],10.5 µM
same,GI50,[12],3.93 µM
same,LC50 (concentration killing 50% of cells),[12],> 100 µM
same,TGI,[12],22.6 µM
same,GI50,[13],4.6 µM
same,LC50 (concentration killing 50% of starting cells),[13],> 100 µM
same,TGI,[13],22.1 µM
same,GI50,[14],2.89 µM
same,LC50,[14],82.1 µM
same,TGI,[14],11 µM
same,GI50,[15],5.91 µM
same,LC50 (50% lethal concentration),[15],47.4 µM
same,TGI,[15],19.8 µM
same,GI50,[16],3.78 µM
same,LC50,[16],49.5 µM
same,TGI,[16],15.4 µM
same,GI50,[17],2.99 µM
same,TGI,[17],> 100 µM
same,CC50,[17]; [31],> 100 µM
same,GI50,[18],2.24 µM
same,LC50 (concentration killing 50% of cells),[18],25.8 µM
same,TGI,[18],6.31 µM
same,GI50,[19],2.65 µM
same,LC50,[19],54.2 µM
same,TGI,[19],13.5 µM
same,GI50,[20],7.02 µM
same,LC50,[20],51.8 µM
same,TGI,[20],20.9 µM
same,GI50,[21],3.48 µM
same,LC50,[21],49.3 µM
same,TGI,[21],16.2 µM
same,GI50,[22],3.65 µM
same,LC50 (50% lethal concentration),[22],40.7 µM
same,TGI,[22],13.8 µM
same,GI50,[23],3.06 µM
same,LC50,[23],31.7 µM
same,TGI,[23],9.63 µM
same,GI50,[24],5.74 µM
same,TGI,[24],23.3 µM
same,CC50,[24]; [31],76.9 µM
same,GI50,[25],1.84 µM
same,LC50,[25],15.5 µM
same,TGI,[25],4.62 µM
same,GI50,[26],3.67 µM
same,LC50 (concentration killing 50% of cells),[26],51.5 µM
same,TGI,[26],14.1 µM
same,GI50,[27],3 µM
same,LC50 (50% lethal concentration),[27],36.2 µM
same,TGI,[27],12.1 µM
same,GI50,[28],3.07 µM
same,LC50,[28],> 100 µM
same,TGI,[28],17 µM
same,GI50,[29],1.78 µM
same,LC50 (50% lethal concentration),[29],7.79 µM
same,TGI,[29],3.72 µM
same,GI50,[30],9.41 µM
same,LC50,[30],61.7 µM
same,TGI,[30],24.6 µM
